Measured values as given in patent US7786093B2, “Antistress agent” (Health Wellness Foods Corporation, priority 2004, dated 2010).

Legend:
[1] = system: human mononuclear cells; assay: IL-12 and IFN-γ production by mononuclear cells stimulated with heat-killed Lactobacillus plantarum L137, with DEX (ELISA); assay type: cell-based; settings: for IFN-γ / IL-12: DEX 10 nM, Lactobacillus plantarum L137 1.0 μg/mL, 24 h
Procedure: (§1) A 2 μg/mL solution of a mouse anti-human IFN-γ antibody (manufactured by Endogen Inc.) prepared in a borate buffer solution was added in 50 μL per one well on a 96-well ELISA plate, and the plate was allowed to stand at 4° C. for a day to adhere the mouse anti-human IFN-γ antibody to each well. The above-mentioned culture supernatant was added in 50 μL per one well on the ELISA plate adhering the mouse anti-human IFN-γ antibody, and the plate was allowed to stand at room temperature for 90 minutes, thereby binding the IFN-γ in the culture supernatant to the mouse anti-human IFN-γ antibody adhered on the plate. After washing the plate, a 0.5 μg/mL solution of a biotin-labeled mouse anti-human IFN-γ antibody (manufactured by Endogen Inc.) prepared in a borate buffer solution was added thereto in 100 μL per one well to bind to the IFN-γ bound with the mouse anti-human IFN-γ antibody adhered on the plate. After washing out an unbound biotin-labeled mouse anti-human IFN-γ antibody, a solution of Avidin-HRP (manufactured by BD PharMingen Inc.) diluted 1000-fold in a borate buffer solution was added thereto in 100 μL per one well to bind to the biotin-labeled mouse anti-human IFN-γ antibody bound with the IFN-γ. After washing out an excess of Avidin-HRP, a phosphate buffer solution containing 0.006 V/V % of hydrogen peroxide and 0.1 W/V % of orthophenylenediamine was added thereto in 100 μL per one well to allow to react at room temperature for 15 minutes, and then the reaction was stopped by addition of 1.5 N sulfuric acid. The absorbance at a measurement wavelength of 492 nm and a reference wavelength of 630 nm was measured, and the concentration of the IFN-γ in the culture supernatant was obtained from a calibration curve prepared with a recombinant IFN-γ.
To the culture was added a cell stimulatory factor, which was heated dead body cells of Lactobacillus plantarum L137, so as to make a final concentration of […]. […] After completion of the incubation, the amounts of IL-12 and IFN-γ in the culture supernatant were measured by the ELISA.

[2] = system: BALB/c mice; assay: Thymic and splenic atrophy due to DEX in mice; assay type: in vivo; settings: control group (commercial feed), DEX 200 μg/mouse i.p., 24 h, female BALB/c mice
Procedure: Female BALB/c mice (8 weeks old) were divided into a group fed with a commercially available feed (control group) and a group fed with a commercially available feed mixed with a nigerooligosaccharide liquid sugar (Nigero S: content of nigerooligosaccharide: 30.8% by weight; manufactured by Takeda Food Products, Ltd.) at a concentration of 5% by weight (nigerooligosaccharide group). […] After 24 hours of the administration, the thymus and spleen of each mouse were excised, and the weights of the excised thymus and spleen were measured.

[3] = system: human mononuclear cells; assay: IFN-γ production by ConA- or PHA-stimulated mononuclear cells with DEX (ELISA); assay type: cell-based; settings: DEX 10 nM, 24 h
Procedure: (a) In a manner similar to that in Example 1, mononuclear cells were prepared from blood of an adult, and the cultivation was initiated at a concentration of 5.0×10^5 mononuclear cells/mL. In a manner similar to that in Example 1, ConA or PHA as a cell stimulatory factor was added to the culture in 50 μL per one well so as to make a final concentration of 2.0 μg/mL or 5.0 μg/mL, respectively, thereby inducing cytokine production. […] After completion of the incubation, the amount of IFN-γ in the culture supernatant was measured by the ELISA.
The determination by the ELISA is shown in the following.
as §1

[4] = system: human mononuclear cells; assay: Suppression by nigerose of the DEX-induced decrease in growth of ConA- or PHA-stimulated human mononuclear cells (WST-1 absorbance); assay type: cell-based; settings: for Absorbance (at 450 nm to 630 nm): DEX 10 nM, 24 h
Procedure: After a blood sample obtained from an adult was diluted two-fold with PBS, a Ficoll-Paque Plus solution (manufactured by Amersham Corporation) was added slowly to make double layers (blood diluted two-fold with PBS Ficoll-Paque Plus solution=4:3), which were centrifuged at the conditions of 400×g, 20° C. and 40 minutes. A mononuclear cell fraction present in the middle layer was recovered, and this mononuclear cell fraction washed twice with a 10-fold volume of PBS. The obtained mononuclear cells were suspended in an RPMI 1640 culture medium (manufactured by GIBCO BRL Corporation) to obtain a suspension of peripheral blood mononuclear cells. The number of cells in the suspension of peripheral blood mononuclear cells was measured with an automatic blood cell counter (manufactured by Sysmex Co., Ltd., Type CDA-500), and the mononuclear cells were suspended in RPMI 1640 culture medium so as to make the number of cells at a concentration of 2.0×10^6 cells/mL. This suspension was inoculated at 50 μL per one well on a 96-well tissue culture plate. To the inoculated suspension was added a solution of ConA or PHA in the RPMI 1640 culture medium in 50 μL per one well so as to make a final concentration of 2.0 μg/mL or 5.0 μg/mL, respectively. […] The mononuclear cells were incubated at 37° C. for 24 hours in a 5% CO2 incubator. At 4 hours before completion of the incubation, a solution of WST-1 (manufactured by Dojindo Laboratories Inc.), dissolved in 0.4 mM 1-methoxy PMS (manufactured by Dojindo Laboratories Inc.) to make a concentration of 10 mM, was added in 10 μL per one well, and the absorbance at a measurement wavelength of 450 nm and a reference wavelength of 630 nm was measured at the time of completion of the incubation.
WST-1, when taken into living cells, is reduced by a intracellular mitochondrial dehydrogenase to produce water-soluble formazan. Because the amount of the thus-produced formazan is proportional to the number of the living cells, the measurement of the absorbance of formazan can be made as an index of the cell growth.

[5] = system: spleen cells of BALB/c mice; assay: Final test: cytokine production of spleen cells from DEX-administered mice given nigerooligosaccharide in drinking water (ELISA); assay type: in vivo; settings: DEX 60 μg/mouse i.p., ion-exchanged water as drinking water
Procedure: The prepared spleen cells were suspended in an RPMI 1640 culture medium so as to make a concentration of 5.0×10^6 cells/mL. This suspension was inoculated in 100 μL per one well on a 96-well tissue culture plate, and further a solution of a cell stimulatory factor, (1) PHA or (2) LPS, dissolved in the RPMI 1640 culture medium so as to make a final concentration of 12.5 μg/mL or 20 μg/mL, respectively, was added in 100 μL per one well. The spleen cells were cultivated at 37° C. for 24 hours in a 5% CO2 incubator, and the concentrations of cytokines in the culture supernatant, IL-4 and IFN-γ for the foregoing (1) or IL-10 and TNF-α for the foregoing (2), were measured by the ELISA. The amount of IFN-γ was measured on the basis of the ELISA described in Example 2. The amounts of IL-4, IL-10 and TNF-α were measured in a manner similar to the ELISA described in Example 2, except that the IFN-γ in the ELISA described in Example 2 was replaced by IL-4, IL-10 or TNF-α.
Next, in this test, to 14 weeks old, female BALB/c mice (6 mice per one group) was given as a drinking water ion-exchanged water or a 1 W/V % solution of a highly pure nigerooligosaccharide (19.8% by weight of nigerose, 36.5% by weight of a trisaccharide fraction mainly composed of nigerosylglucose, 40.2% by weight of a tetra- or more saccharide fraction mainly composed of nigerosylmaltose, and 3.5% by weight of glucose) in ion-exchanged water, and the mice were fed with a commercially available feed. […] After 24 hours of the administration, the spleen was excised, and spleen cells were cultivated at the same conditions as those in the preliminary test, and the concentrations of cytokines in the culture supernatant were measured.

[6] = system: human mononuclear cells; assay: Activated apoptosis of mononuclear cells (ssDNA Apoptosis ELISA kit); assay type: cell-based; settings: for Absorbance (415 nm), degree of apoptosis: 24 h
Procedure: In a manner similar to that in Example 1, mononuclear cells were prepared from blood of an adult, and the cultivation was initiated at a concentration of 5.0×10^5 mononuclear cells/mL in a manner similar to that in Example 1. To the culture was added ConA or a hemolytic streptococcus preparation OK-432 (picibanil, manufactured by Chugai Pharmaceutical Co., Ltd.) as a cell stimulatory factor, so as to make a final concentrations of 2.0 μg/mL or 1.0 μg/mL, respectively. At this time, nigerose was added to each of the culture groups so as to make a concentration of 1.0 μg/mL and 10 μg/mL, where a nigerose-free control group was provided to each of the culture groups. The mononuclear cells were incubated at 37° C. for 24 hours in a 5% CO2 incubator. After completion of the incubation, apoptosis cells were fixed with an ssDNA Apoptosis ELISA kit (manufactured by Chemicon International, Inc.) which could specifically detect only the apoptosis cells, treated with a DNA-denaturing agent, then stained, and the absorbance (415 nm) was measured to quantify the degree of apoptosis.

[7] = nigerose 0 μg/mL, ConA 2.0 μg/mL
[8] = nigerose 0 μg/mL, PHA 5.0 μg/mL
[9] = nigerose 1 μg/mL, ConA 2.0 μg/mL
[10] = nigerose 1 μg/mL, PHA 5.0 μg/mL
[11] = nigerose 10 μg/mL, ConA 2.0 μg/mL
[12] = nigerose 10 μg/mL, PHA 5.0 μg/mL
[13] = nigerose 100 μg/mL, ConA 2.0 μg/mL
[14] = nigerose 100 μg/mL, PHA 5.0 μg/mL

C[C@@H]1C[C@H]2[C@@H]3CCC4=CC(=O)C=C[C@]4(C)[C@@]3(F)[C@@H](O)C[C@]2(C)[C@@]1(O)C(=O)CO [DEX, Dexamethasone]
IFN-γ ([1]; nigerose 0 μg/mL): 1.748 ± 0.307 ng/mL | Weight of spleen [2]: 78.3 ± 19.3 mg | Weight of thymus [2]: 28.8 ± 10.3 mg | Amount of IFN-γ production [3, 7]: 0.106 ± 0.046 ng/mL | Amount of IFN-γ production [3, 8]: 0.119 ± 0.022 ng/mL | Absorbance (at 450 nm to 630 nm) [4, 7]: 0.286 ± 0.004 | Absorbance (at 450 nm to 630 nm) [4, 8]: 0.299 ± 0.004 | IL-10 concentration in the culture supernatant ([5]; LPS): 0.021 ± 0.011 ng/mL | TNF-α concentration in the culture supernatant ([5]; LPS): 0.373 ± 0.062 ng/mL | IFN-γ concentration in the culture supernatant ([5]; PHA): 0.059 ± 0.027 ng/mL | IL-4 concentration in the culture supernatant ([5]; PHA): 2.1 ± 0.8 pg/mL

OC[C@H]1O[C@H](O[C@H]2[C@H](O)[C@@H](CO)OC(O)[C@@H]2O)[C@H](O)[C@@H](O)[C@@H]1O (some centres unmarked) [Nigerose, nigerose]
decrease of IL-12 and IFN-γ due to DEX ([1]; addition of nigerose, Tables 2 and 3): significantly suppressed concentration-dependently | IFN-γ ([1]; nigerose 0.1 μg/mL): 1.895 ± 0.816 ng/mL | IL-12 ([1]; nigerose 0.1 μg/mL): 0.093 ± 0.021 ng/mL | IFN-γ ([1]; nigerose 1 μg/mL): 1.866 ± 0.890 ng/mL | IL-12 ([1]; nigerose 1 μg/mL): 0.130 ± 0.042 ng/mL | IFN-γ ([1]; nigerose 10 μg/mL): 2.677 ± 1.000 ng/mL | IL-12 ([1]; nigerose 10 μg/mL): 0.171 ± 0.016 ng/mL | Amount of IFN-γ production [3, 9]: 0.075 ± 0.070 ng/mL | Amount of IFN-γ production [3, 10]: 0.144 ± 0.022 ng/mL | Amount of IFN-γ production [3, 11]: 0.136 ± 0.095 ng/mL | Amount of IFN-γ production [3, 12]: 0.219 ± 0.095 ng/mL | Amount of IFN-γ production [3, 13]: 0.365 ± 0.053 ng/mL | Amount of IFN-γ production [3, 14]: 0.320 ± 0.038 ng/mL | decrease in the growth of mononuclear cells due to DEX ([4]; addition of nigerose, ConA or PHA stimulation): significantly suppressed concentration-dependently | Absorbance (at 450 nm to 630 nm) [4, 9]: 0.289 ± 0.004 | Absorbance (at 450 nm to 630 nm) [4, 10]: 0.290 ± 0.002 | Absorbance (at 450 nm to 630 nm) [4, 11]: 0.307 ± 0.003 | Absorbance (at 450 nm to 630 nm) [4, 12]: 0.305 ± 0.009 | Absorbance (at 450 nm to 630 nm) [4, 13]: 0.319 ± 0.004 | Absorbance (at 450 nm to 630 nm) [4, 14]: 0.319 ± 0.007 | Absorbance (415 nm), degree of apoptosis ([6]; nigerose 1.0 μg/mL, ConA 2.0 μg/mL): 1.631 ± 0.175 | Absorbance (415 nm), degree of apoptosis ([6]; nigerose 1.0 μg/mL, OK-432 1.0 μg/mL): 1.549 ± 0.276 | Absorbance (415 nm), degree of apoptosis ([6]; nigerose 1.0 μg/mL, culture solution (no cell stimulatory factor)): 1.113 ± 0.053 | Absorbance (415 nm), degree of apoptosis [6, 11]: 1.372 ± 0.165 | Absorbance (415 nm), degree of apoptosis ([6]; nigerose 10 μg/mL, OK-432 1.0 μg/mL): 1.767 ± 0.203 | Absorbance (415 nm), degree of apoptosis ([6]; nigerose 10 μg/mL, culture solution (no cell stimulatory factor)): 1.134 ± 0.065 | effect on the apoptosis ([6]; nigerose-added group): suppressive effect
